Test results taken from PMC4457633 (Bioorganic & medicinal chemistry letters, 2015).
Like-named read-outs stand apart in the source and are kept apart here.

Tests used:
VMAT-2 [1] = biological target: T1, VMAT-2 (Rattus norvegicus, UniProt Q01827); experiment: [3H]DA uptake at VMAT-2, isolated rat synaptic vesicle preparations; format: biochemical; conditions: for fold more potent inhibiting [3H]DA uptake at VMAT-2 compared to 16: compared to N-2,3-dihydroxypropyl derivative 16
[2] = qualitative; ref [15]; cited from earlier work
VMAT-2 [3] = biological target: T1, VMAT-2; conditions: read-out: [3H]DTBZ Binding Ki; mean ± SEM; rat brain synaptic vesicles; ref [15]; cited from earlier work
VMAT-2 [4] = biological target: T1, VMAT-2; conditions: read-out: [3H]DA uptake Ki; mean ± SEM; rat synaptic vesicles; ref [15]; cited from earlier work

T1 sequence (Q01827 whole entry): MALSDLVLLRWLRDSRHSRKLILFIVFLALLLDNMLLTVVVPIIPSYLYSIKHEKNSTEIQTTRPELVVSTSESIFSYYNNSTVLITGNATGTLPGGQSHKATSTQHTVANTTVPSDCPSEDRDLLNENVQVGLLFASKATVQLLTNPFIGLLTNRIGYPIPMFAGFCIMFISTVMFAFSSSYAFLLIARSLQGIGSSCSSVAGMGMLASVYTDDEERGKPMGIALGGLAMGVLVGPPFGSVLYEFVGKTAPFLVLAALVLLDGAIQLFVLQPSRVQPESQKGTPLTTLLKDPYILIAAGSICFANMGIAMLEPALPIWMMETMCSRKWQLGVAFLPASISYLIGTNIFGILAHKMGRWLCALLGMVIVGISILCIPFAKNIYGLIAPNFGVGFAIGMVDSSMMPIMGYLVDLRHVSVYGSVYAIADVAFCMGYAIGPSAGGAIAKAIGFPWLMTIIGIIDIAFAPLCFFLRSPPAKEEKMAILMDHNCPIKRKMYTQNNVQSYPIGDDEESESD

Row | Compound | water solubility [2] | fold more potent inhibiting [3H]DA uptake at VMAT-2 compared to 16 (VMAT-2 [1]) | further results
1 | OC[C@H](O)CN1[C@@H](CCc2ccc3ccccc3n2)CCC[C@H]1CCc1ccc2ccccc2n1 [Compound 16] |  |  | fold lower inhibitory potency than GZ-793A in vesicular [3H]DA uptake assay (VMAT-2 [1]; compared to GZ-793A (Ki = […] nM)): 8 fold
2 | CN1[C@@H](CCc2ccccc2)CCC[C@H]1CCc1ccccc1 [Lobelane] | less than optimal water-solubility |  | 
3 | c1cnc2ccc(CC[C@H]3CCC[C@@H](CCc4ccc5ncccc5c4)N3)cc2c1 [Compound 15] |  | about 6 fold | 
4 | CN1[C@@H](CCc2ccnc3ccccc23)CCC[C@H]1CCc1ccnc2ccccc12 [Quinlobelane] | improved water solubility over lobelane and norlobelane |  | 
5 | c1ccc2nc(CC[C@H]3CCC[C@@H](CCc4ccc5ccccc5n4)N3)ccc2c1 [Compound 13] |  | about 6 fold | 
6 | c1ccc2c(CC[C@H]3CCC[C@@H](CCc4ccnc5ccccc45)N3)ccnc2c1 [Compound 14] |  | about 6 fold | 
7 | c1ccc(CC[C@H]2CCC[C@@H](CCc3ccccc3)N2)cc1 [Norlobelane] | less than optimal water-solubility |  | Ki (VMAT-2 [3]): 2310 ± 190 nM; Ki (VMAT-2 [4]): 43 ± 2 nM
